Reference: patent US12071430B2 (The Johns Hopkins University, priority 2011, dated 2024)
Values after ≈ are worked out from the molar mass of the structure shown. Like-named read-outs stand apart in the source and are kept apart here.

Assays:
[1] = Aqueous solubility test in 0.001N HCl; type: physicochemical; conditions: 0.001 N HCl aqueous buffer, simulated gastric fluid, kinetic from dmso stock; thermodynamic solubility, HPLC, pH=3, room temperature, 24 h
Description: (§1) The inhibitory effects of the new analogs on HUVEC proliferation were measured using a [3H]-thymidine incorporation assay. The log P values, used as an indicator of lipophilicity, were calculated using ALOGPS2.1 software. Aqueous solubility is a key physiochemical property relevant for oral absorption. We determined the solubility of each analog in 0.001 N HCl (pH=3), which represents the acidic human gastric fluid.
Aqueous solubility test. In a 1.5 mL microcentrifuge tube, 2 ul of 10 mM compound stock solution in DMSO was added to 1 mL 0.001N HCl aqueous buffer to obtain saturated solution. The resulting mixture was shaken under 600 rpm for 24 h at room temperature. Then the tube was centrifuged at 13,000 rpm for 5 min to remove the undissolved compound. 100 ul of the supernatant was injected to an Agilent 6120 LC/MS for analysis. The mass spectrometry data was collected under SIM/Scan mode. The ions of compound Exact Mass+1 and Exact Mass+23 were monitored as selected ion monitoring (SIM) for peak area integration. Solubility was calculated according to the concentration standard curve of each compound.

HUVEC [2] = test: HUVEC proliferation, [3H]-thymidine incorporation assay; type: cell-based; conditions: Homo sapiens, mean ± SD, three independent experiments, read-out: HUVEC inhibition IC50
HUVEC [3] = test: as above; type: cell-based, human; conditions: for Proliferation (IC50/IC50 Itra): HUVEC IC50 relative to itraconazole; for IC50: Homo sapiens, HUVEC, [3H]-thymidine incorporation, unit inferred, values in μM, read-out: Proliferation IC50
Description: as §1
HUVEC Culture and Proliferation Assays. HUVEC (Lonza) were grown in EGM-2 bullet kit media (Lonza) and used at passage eight or lower. The H thymidine incorporation assays were conducted as previously described. Briefly, cells were seeded on 96-well plate at a concentration of 2000 cells/well and allowed to settle overnight. Drugs were added to each well in triplicate. After 24 hours, cells were treated with 1 μCi of [3H] thymidine for 6 h. Then cells were harvested and transferred to filtermats. The scintillation were counted and IC50 were determined using Prism software (version 6.0).

CYP3A4 = target: T1, CYP3A4 (Homo sapiens, UniProt P08684); test: CYP3A4 enzyme assay (Vivid CYP3A4 Green Screening Kit); type: in vitro ADME; conditions: for CYP3A4 Inhibition (compared to intracozanole at 1 um): % enzyme inhibition at 1 uM drug / % enzyme inhibition at 1 uM itraconazole
T1 construct: purchased ThermoFisher P2857; host or cells: baculosomes (insect-cell microsomes, own knowledge)
Description: And CYP3A4 inhibition was initially determined using a cell-free fluorescence-based assay at a final concentration of 1 μM (Table 2).
CYP3A4 enzyme assay. CYP3A4 enzyme activity was tested using Vivid™ CYP3A4 Green Screening Kit (ThermoFisher, #P2857) using the manufacturer's protocol. Briefly, CYP3A4 baculosomes and drugs were incubated 10 min at 37° C. Then Vivid® Substrates were added and the fluorescence (ex/em:485/520) were read every 1 min for 60 minute.

T1 sequence (P08684 whole entry): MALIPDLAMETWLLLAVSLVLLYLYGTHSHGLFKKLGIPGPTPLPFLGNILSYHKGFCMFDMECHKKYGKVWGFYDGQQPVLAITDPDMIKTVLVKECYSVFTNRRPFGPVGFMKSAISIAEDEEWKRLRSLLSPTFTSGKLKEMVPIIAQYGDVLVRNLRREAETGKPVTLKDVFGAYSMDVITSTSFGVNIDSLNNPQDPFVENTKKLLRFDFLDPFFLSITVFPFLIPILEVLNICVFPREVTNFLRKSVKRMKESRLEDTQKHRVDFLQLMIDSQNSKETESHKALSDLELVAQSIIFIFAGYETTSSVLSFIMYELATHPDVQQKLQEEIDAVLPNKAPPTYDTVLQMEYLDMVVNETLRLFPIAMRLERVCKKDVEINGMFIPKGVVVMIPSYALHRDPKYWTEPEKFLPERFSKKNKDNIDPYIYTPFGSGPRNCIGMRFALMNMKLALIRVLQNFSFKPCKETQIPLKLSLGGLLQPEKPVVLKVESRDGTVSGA

| Structure (SMILES) | solubility at 24 h [1] [µg/mL] | IC50 (HUVEC [2]) [µM] | Proliferation (IC50/IC50 Itra) (HUVEC [3]) | CYP3A4 Inhibition (compared to intracozanole at 1 um) (CYP3A4) | IC50 (HUVEC [3]) [µM] | CYP3A4 inhibition, in words (CYP3A4; dose response or compared with itraconazole) |
| --- | --- | --- | --- | --- | --- | --- |
| CCC(C)n1ncn(-c2ccc(N3CCN(c4ccc(OC[C@@H]5CO[C@@](Cn6ccnc6)(c6ccc(Cl)cc6Cl)O5)nc4)CC3)cc2)c1=O (stereo partly drawn) [Compound 2, 4-(4-(4-(6-(((2S,4R)-2-((1H-imidazol-1-yl)methyl)-2-(2,4-dichlorophenyl)-1,3-dioxolan-4-yl)methoxy)pyridin-3-yl)piperazin-1-yl)phenyl)-2-(sec-butyl)-2,4-dihydro-3H-1,2,4-triazol-3-one] | 6.48 (≈ 9.19 µM) | 0.469 ± 0.0422 | – | – | – | – |
| CCC(C)n1ncn(-c2ccc(N3CCN(c4ccc(OC[C@@H]5CO[C@@](Cn6ccnc6)(c6ccc(Cl)cc6Cl)O5)cc4)CC3)cn2)c1=O (stereo partly drawn) [Compound 7, 4-(5-(4-(4-(((2S,4R)-2-((1H-imidazol-1-yl)methyl)-2-(2,4-dichlorophenyl)-1,3-dioxolan-4-yl)methoxy)phenyl)piperazin-1-yl)pyridin-2-yl)-2-(sec-butyl)-2,4-dihydro-3H-1,2,4-triazol-3-one] | 41.3 (≈ 58.6 µM) | 0.636 ± 0.177 | – | – | – | – |
| CCC(C)n1ncn(-c2ccc(N3CCN(c4ccc(OC[C@@H]5CO[C@@](Cn6nnnc6-c6ccccc6)(c6ccc(Cl)cc6Cl)O5)cc4)CC3)cc2)c1=O (stereo partly drawn) [Compound 53, 1-sec-butyl-4-(4-(4-(4-(((2S,4R)-2-(2,4-dichlorophenyl)-2-((5-phenyl-1H-tetrazol-1-yl)methyl)-1,3-dioxolan-4-yl)methoxy)phenyl)piperazin-1-yl)phenyl)-1H-1,2,4-triazol-5(4H)-one] | – | – | 0.7 | 0.22 | – | – |
| CCC(C)n1ncn(-c2ccc(N3CCN(c4ccc(OC[C@@H]5CO[C@@](CBr)(c6ccc(Cl)cc6Cl)O5)cc4)CC3)cc2)c1=O (stereo partly drawn) [Compound 57, 4-(4-(4-(4-(((2S,4R)-2-(bromomethyl)-2-(2,4-dichlorophenyl)-1,3-dioxolan-4-yl)methoxy)phenyl)piperazin-1-yl)phenyl)-1-sec-butyl-1H-1,2,4-triazol-5(4H)-one] | – | – | 3.0 | 0.03 | 0.569 | – |
| CCC(C)n1ncn(-c2ccc(N3CCN(c4ccc(OC[C@@H]5CO[C@@](CC)(c6ccc(Cl)cc6Cl)O5)cc4)CC3)cc2)c1=O (stereo partly drawn) [Compound 59, 1-sec-butyl-4-(4-(4-(4-(((2R,4R)-2-(2,4-dichlorophenyl)-2-ethyl-1,3-dioxolan-4-yl)methoxy)phenyl)piperazin-1-yl)phenyl)-1H-1,2,4-triazol-5(4H)-one] | – | – | 2.1 | No inhibition | – | totally lost CYP3A4 inhibition |
| CCC(C)n1ncn(-c2ccc(N3CCN(c4ccc(OC[C@@H]5CO[C@@](Cc6ccccc6)(c6ccc(Cl)cc6Cl)O5)cc4)CC3)cc2)c1=O (stereo partly drawn) [Compound 60, 4-(4-(4-(4-(((2R,4R)-2-benzyl-2-(2,4-dichlorophenyl)-1,3-dioxolan-4-yl)methoxy)phenyl)piperazin-1-yl)phenyl)-1-sec-butyl-1H-1,2,4-triazol-5(4H)-one] | – | – | 3.0 | No inhibition | 0.513 | – |
| CCC(C)n1ncn(-c2ccc(N3CCN(c4ccc(OC[C@@H]5CO[C@@](CC6CCCC6)(c6ccc(Cl)cc6Cl)O5)cc4)CC3)cc2)c1=O (stereo partly drawn) [Compound 61, 1-sec-butyl-4-(4-(4-(4-(((2R,4R)-2-(cyclopentylmethyl)-2-(2,4-dichlorophenyl)-1,3-dioxolan-4-yl)methoxy)phenyl)piperazin-1-yl)phenyl)-1H-1,2,4-triazol-5(4H)-one] | – | – | 3.0 | No inhibition | – | – |
| CCC(C)n1ncn(-c2ccc(N3CCN(c4ccc(OC[C@@H]5COC(c6ccc(Cl)cc6Cl)O5)cc4)CC3)cc2)c1=O (stereo partly drawn) [Compound 62, 1-sec-butyl-4-(4-(4-(4-(((4R)-2-(2,4-dichlorophenyl)-1,3-dioxolan-4-yl)methoxy)phenyl)piperazin-1-yl)phenyl)-1H-1,2,4-triazol-5(4H)-one] | – | – | 1.9 | No inhibition | – | – |
| CCC(C)n1ncn(-c2ccc(N3CCN(c4ccc(OC[C@@H]5CO[C@@](CN6CCOCC6)(c6ccc(Cl)cc6Cl)O5)cc4)CC3)cc2)c1=O (stereo partly drawn) [Compound 63, 1-(sec-butyl)-4-(4-(4-(4-(((2S,4R)-2-(2,4-dichlorophenyl)-2-(morpholinomethyl)-1,3-dioxolan-4-yl)methoxy)phenyl)piperazin-1-yl)phenyl)-1H-1,2,4-triazol-5(4H)-one] | – | – | 7.4 | 0.20 | – | – |
| CCC(C)n1ncn(-c2ccc(N3CCN(c4ccc(OC[C@@H]5CO[C@@](CN(C)C)(c6ccc(Cl)cc6Cl)O5)cc4)CC3)cc2)c1=O (stereo partly drawn) [Compound 64, 1-(sec-butyl)-4-(4-(4-(4-(((2S,4R)-2-(2,4-dichlorophenyl)-2-((dimethylamino)methyl)-1,3-dioxolan-4-yl)methoxy)phenyl)piperazin-1-yl)phenyl)-1H-1,2,4-triazol-5(4H)-one] | – | – | 8.8 | No inhibition | – | – |
| CCC(C)n1ncn(-c2ccc(N3CCN(c4ccc(OC[C@@H]5CO[C@@](CN6CCN(C)CC6)(c6ccc(Cl)cc6Cl)O5)cc4)CC3)cc2)c1=O (stereo partly drawn) [Compound 65, 1-(sec-butyl)-4-(4-(4-(4-(((2S,4R)-2-(2,4-dichlorophenyl)-2-((4-methylpiperazin-1-yl)methyl)-1,3-dioxolan-4-yl)methoxy)phenyl)piperazin-1-yl)phenyl)-1H-1,2,4-triazol-5(4H)-one] | – | – | 3.8 | 0.21 | – | – |
| CCC(C)n1ncn(-c2ccc(N3CCN(c4ccc(OC[C@@H]5CO[C@@](CN6CCNCC6)(c6ccc(Cl)cc6Cl)O5)cc4)CC3)cc2)c1=O (stereo partly drawn) [Compound 66, 1-(sec-butyl)-4-(4-(4-(4-(((2S,4R)-2-(2,4-dichlorophenyl)-2-(piperazin-1-ylmethyl)-1,3-dioxolan-4-yl)methoxy)phenyl)piperazin-1-yl)phenyl)-1H-1,2,4-triazol-5(4H)-one] | – | – | 2.5 | 1.09 | – | – |
| CCC(C)n1ncn(-c2ccc(N3CCN(c4ccc(OC[C@@H]5CO[C@@](Cn6cncn6)(c6ccc(Cl)cc6Cl)O5)nc4)CC3)cc2)c1=O (stereo partly drawn) [Compound 100, 4-(4-(4-(6-(((2S,4R)-2-((1H-1,2,4-triazol-1-yl)methyl)-2-(2,4-dichlorophenyl)-1,3-dioxolan-4-yl)methoxy)pyridin-3-yl)piperazin-1-yl)phenyl)-2-(sec-butyl)-2,4-dihydro-3H-1,2,4-triazol-3-one] | 0.116 (≈ 0.164 µM) | 0.687 ± 0.0781 | – | – | – | – |
| CCC(C)n1ncn(-c2ccc(N3CCN(c4ccc(OC[C@@H]5CO[C@@](Cn6cncn6)(c6ccc(Cl)cc6Cl)O5)cc4)CC3)nc2)c1=O (stereo partly drawn) [Compound 102, 4-(6-(4-(4-(((2S,4R)-2-((1H-1,2,4-triazol-1-yl)methyl)-2-(2,4-dichlorophenyl)-1,3-dioxolan-4-yl)methoxy)phenyl)piperazin-1-yl)pyridin-3-yl)-2-(sec-butyl)-2,4-dihydro-3H-1,2,4-triazol-3-one] | 0.0539 (≈ 0.0763 µM) | 0.222 ± 0.0231 | – | – | – | – |
| CCC(C)n1ncn(-c2ccc(N3CCN(c4ccc(OC[C@@H]5CO[C@@](Cn6cncn6)(c6ccc(Cl)cc6Cl)O5)cc4)CC3)cn2)c1=O (stereo partly drawn) [Compound 103, 4-(5-(4-(4-(((2S,4R)-2-((1H-1,2,4-triazol-1-yl)methyl)-2-(2,4-dichlorophenyl)-1,3-dioxolan-4-yl)methoxy)phenyl)piperazin-1-yl)pyridin-2-yl)-2-(sec-butyl)-2,4-dihydro-3H-1,2,4-triazol-3-one] | 0.496 (≈ 0.703 µM) | 0.188 ± 0.0175 | – | – | – | – |
